Our source for the EC50 values is patent US9156796B2, “Benzoimidazole-carboxylic acid amide derivatives as APJ receptor modulators” (SANOFI, priority 2013, dated 2015).

The target of this assay is T1, human apelin receptor (Homo sapiens, UniProt P35414).
T1 construct: expressed in transfected cells
T1 sequence (P35414 1-380): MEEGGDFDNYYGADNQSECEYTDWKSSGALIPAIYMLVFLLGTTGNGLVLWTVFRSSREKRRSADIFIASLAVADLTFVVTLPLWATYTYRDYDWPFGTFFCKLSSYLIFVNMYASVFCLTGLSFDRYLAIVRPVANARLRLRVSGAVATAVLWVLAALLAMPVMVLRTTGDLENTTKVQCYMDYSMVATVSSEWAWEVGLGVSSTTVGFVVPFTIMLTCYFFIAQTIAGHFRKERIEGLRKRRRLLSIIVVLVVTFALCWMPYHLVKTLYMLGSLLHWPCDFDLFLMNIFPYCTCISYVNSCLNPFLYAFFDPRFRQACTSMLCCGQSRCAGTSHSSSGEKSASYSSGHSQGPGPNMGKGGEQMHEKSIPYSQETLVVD
Nature of the assay: Determination of agonism on the human apelin receptor by a calcium fluorescence assay (FLIPR). It is filed as cell-based. The note with it: HEK293 cells stably transfected with human apelin receptor and Giaq protein, Fluo-4 calcium fluorescence, read-out: EC50 (APJ agonism). Put shortly: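 HEK293 cells stably co-expressing human apelin receptor and promiscuous Giaq, loaded 1 h at 37 °C with Fluo-4 (4 μM) in probenecid-containing Hepes buffer, pH 7.4. Compounds, at least 7 concentrations in triplicate, added in FLIPR Tetra; peak calcium fluorescence normalized to 1 μM apelin-13 as 100% to derive EC50.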
On to `CCC(CC)n1c(Cc2cccs2)nc2cc(C(=O)N[C@@H](CC(C)C)C(=O)NCc3cccs3)ccc21` [Example 222, 1-(1-Ethyl-propyl)-2-thiophen-2-ylmethyl-1H-benzoimidazole-5-carboxylic acid {(S)-3-methyl-1-[(thiophen-2-ylmethyl)-carbamoyl]-butyl}-amide], for which the EC50 (in general, the concentration giving half of the maximal effect) is 3990 nM. The result for `CC(C)C[C@@H](CC(=O)O)NC(=O)c1ccc2c(c1)nc(Cc1cccs1)n2C1CCCCC1C` (single isomer, unassigned) [Example 437] reads 4910 nM; that for `CCC(CC)n1c(Cc2cccs2)nc2cc(C(=O)N[C@@H](CC(C)C)C(=O)NCC3CN(CC(C)C)CCO3)ccc21` (stereo partly drawn) [Example 355, 1-(1-Ethyl-propyl)-2-thiophen-2-ylmethyl-1H-benzoimidazole-5-carboxylic acid {(S)-1-[(4-isobutyl-morpholin-2-ylmethyl)-carbamoyl]-3-methyl-butyl}-amide], 1520 nM; that for `Cc1ccc(-n2c(Cc3cccs3)nc3cc(C(=O)N[C@@H](CC(C)C)C(=O)O)ccc32)cc1` [Example 115, (S)-4-Methyl-2-[(2-thiophen-2-ylmethyl-1-p-tolyl-1H-benzoimidazole-5-carbonyl)-amino]-pentanoic acid], 34600 nM. As to `CCC(CC)n1c(Cc2cccs2)nc2cc(C(=O)N[C@@H](CC(C)C)C(=O)NCCNS(C)(=O)=O)ccc21` [Example 402, 1-(1-Ethyl-propyl)-2-thiophen-2-ylmethyl-1H-benzoimidazole-5-carboxylic acid [(S)-1-(2-methanesulfonylamino-ethylcarbamoyl)-3-methyl-butyl]-amide], the EC50 worked out at 777 nM.

Consider `CCC[C@H](NC(=O)c1ccc2c(c1)nc(Cc1cccs1)n2[C@@H]1CCCC[C@H]1C)C(=O)O` [Example 91, (S)-2-{[1-((1R,2R)-2-Methyl-cyclohexyl)-2-thiophen-2-ylmethyl-1H-benzoimidazole-5-carbonyl]-amino}-pentanoic acid], for which the half-maximal effective concentration (EC50) was found to be 137 nM. Turning to `CCC(CC)n1c(Cc2cccs2)nc2cc(C(=O)N[C@@H](CC(C)C)C(=O)O)ccc21` [Example 114, (S)-2-{[1-(1-Ethyl-propyl)-2-thiophen-2-ylmethyl-1H-benzoimidazole-5-carbonyl]-amino}-4-methyl-pentanoic acid], the concentration for a half-maximal effect (EC50) is 185 nM.

As for `CCC(CC)n1c(Cc2cccs2)nc2cc(C(=O)N[C@@H](CC(C)C)C(=O)NCCN3CCCC3)ccc21` [Example 230, 1-(1-Ethyl-propyl)-2-thiophen-2-ylmethyl-1H-benzoimidazole-5-carboxylic acid [(S)-3-methyl-1-(2-pyrrolidin-1-yl-ethylcarbamoyl)-butyl]-amide], the EC50 worked out at 288 nM. On to `CCC(CC)n1c(Cc2cccs2)nc2cc(C(=O)N[C@@H](CC(C)C)C(=O)NCCCN3CCN(Cc4ccccc4)CC3)ccc21` [Example 341, 1-(1-Ethyl-propyl)-2-thiophen-2-ylmethyl-1H-benzoimidazole-5-carboxylic acid {(S)-1-[3-(4-benzyl-piperazin-1-yl)-propylcarbamoyl]-3-methyl-butyl}-amide], for which the EC50 worked out at 918 nM. The result for `CCC[C@@H](CO)NC(=O)c1ccc2c(c1)nc(CC1CCCC1)n2C(CC)CC` [Example 186, 2-Cyclopentylmethyl-1-(1-ethyl-propyl)-1H-benzoimidazole-5-carboxylic acid ((S)-1-hydroxymethyl-butyl)-amide] reads 4670 nM; that for `CCC(CC)n1c(Cc2cccs2)nc2cc(C(=O)N[C@@H](CC(C)C)C(=O)N[C@@H](C)c3ccccc3F)ccc21` [Example 262, 1-(1-Ethyl-propyl)-2-thiophen-2-ylmethyl-1H-benzoimidazole-5-carboxylic acid {(S)-1-[(S)-1-(2-fluoro-phenyl)-ethylcarbamoyl]-3-methyl-butyl}-amide], 4550 nM; that for `CCC(CC)n1c(Cc2cccs2)nc2cc(C(=O)N[C@H](CC(=O)O)CC(C)C)ccc21` [Example 107, (S)-3-{[1-(1-Ethyl-propyl)-2-thiophen-2-ylmethyl-1H-benzoimidazole-5-carbonyl]-amino}-5-methyl-hexanoic acid], 47 nM. With `CCCC(NC(=O)c1ccc2c(c1)nc(Cc1cccs1)n2C(CC)CC)C(C)(C)C(=O)O` (single isomer, unassigned) [Example 467] the figure was 265 nM.

On to `CC1CCC(NC(=O)c2ccc3c(c2)nc(Cc2cccs2)n3[C@@H]2CCCC[C@H]2C)(C(=O)O)CC1` (stereo partly drawn) [Example 35, 4-Methyl-1-{[1-((1R,2R)-2-methyl-cyclohexyl)-2-thiophen-2-ylmethyl-1H-benzoimidazole-5-carbonyl]-amino}-cyclohexanecarboxylic acid], for which the 50% effective concentration (EC50) came out at 291 nM.

For the compound `CC1CCCCC1n1c(Cc2cccs2)nc2cc(C(=O)N[C@@H](CC3CCCCC3)C(=O)O)ccc21` (single isomer, unassigned) [Example 426], the 50% effective concentration (EC50) came out at 1630 nM. With `CCC(CC)n1c(Cc2cccs2)nc2cc(C(=O)NC(CC(=O)O)CC(C)(C)C)ccc21` (stereo not shown) [Example 47, 3-{[1-(1-Ethyl-propyl)-2-thiophen-2-ylmethyl-1H-benzoimidazole-5-carbonyl]-amino}-5,5-dimethyl-hexanoic acid], the EC50 was found to be 2580 nM. As for `CCC(CC)n1c(Cc2cccs2)nc2cc(C(=O)N[C@@H](CC(C)C)C(=O)N3CCC(N(CC)CC)C3)ccc21` (stereo partly drawn) [Example 329, 1-(1-Ethyl-propyl)-2-thiophen-2-ylmethyl-1H-benzoimidazole-5-carboxylic acid [(S)-1-(3-diethylamino-pyrrolidine-1-carbonyl)-3-methyl-butyl]-amide], the concentration giving a half-maximal response (EC50) worked out at 362 nM.

As for `CC(C)C[C@H](NC(=O)c1ccc2c(c1)nc(Cc1cccs1)n2[C@@H]1CCCC[C@H]1C)[C@H](O)CC(=O)O` [Example 77, (3R,4S)-3-Hydroxy-6-methyl-4-{[1-((1R,2R)-2-methyl-cyclohexyl)-2-thiophen-2-ylmethyl-1H-benzoimidazole-5-carbonyl]-amino}-heptanoic acid], the EC50 is 53 nM.

Turning to `CCC(CC)n1c(Cc2cccs2)nc2cc(C(=O)N[C@H](CC(=O)O)[C@@H](C)CC)ccc21` [Example 54, (3R,4S)-3-{[1-(1-Ethyl-propyl)-2-thiophen-2-ylmethyl-1H-benzoimidazole-5-carbonyl]-amino}-4-methyl-hexanoic acid], the concentration for a half-maximal effect (EC50) is 115 nM. Turning to `CCC(CC)n1c(Cc2cccs2)nc2cc(C(=O)N[C@@H](CC(C)C)C(=O)NCC3CCOCC3)ccc21` [Example 369, 1-(1-Ethyl-propyl)-2-thiophen-2-ylmethyl-1H-benzoimidazole-5-carboxylic acid {(S)-3-methyl-1-[(tetrahydro-pyran-4-ylmethyl)-carbamoyl]-butyl}-amide], the EC50 came out at 2210 nM. For the compound `CCC(CC)n1c(Cc2cccs2)nc2cc(C(=O)NC(CC(C)C)C(C)(C)C(=O)O)ccc21` (stereo not shown) [Example 62, 3-{[1-(1-Ethyl-propyl)-2-thiophen-2-ylmethyl-1H-benzoimidazole-5-carbonyl]-amino}-2,2,5-trimethyl-hexanoic acid], the EC50 was determined as 193 nM. On to `CCC(CC)n1c(Cc2cccs2)nc2cc(C(=O)N[C@@H](CC(C)C)C(=O)N3CCC[C@H]3COC)ccc21` [Example 384, 1-(1-Ethyl-propyl)-2-thiophen-2-ylmethyl-1H-benzoimidazole-5-carboxylic acid [(S)-1-((S)-2-methoxymethyl-pyrrolidine-1-carbonyl)-3-methyl-butyl]-amide], for which the concentration for a half-maximal effect (EC50) stood at 1630 nM.

On to `CCC(CC)n1c(Cc2cccs2)nc2cc(C(=O)N[C@@H](CC(C)C)C(=O)NCCC3CCCCN3C)ccc21` (stereo partly drawn) [Example 289, 1-(1-Ethyl-propyl)-2-thiophen-2-ylmethyl-1H-benzoimidazole-5-carboxylic acid {(S)-3-methyl-1-[2-(1-methyl-piperidin-2-yl)-ethylcarbamoyl]-butyl}-amide], for which the concentration for a half-maximal effect (EC50) turned out to be 341 nM.

With `CCC1CCCCC1n1c(Cc2cccs2)nc2cc(C(=O)N[C@@H](CC(C)C)C(=O)O)ccc21` (stereo partly drawn) [Example 93, (S)-2-{[1-(2-Ethyl-cyclohexyl)-2-thiophen-2-ylmethyl-1H-benzoimidazole-5-carbonyl]-amino}-4-methyl-pentanoic acid], the EC50 was 291 nM.

Turning to `CCC(CC)n1c(Cc2cccs2)nc2cc(C(=O)N[C@@H](CC(C)C)C(=O)NCCCN3CCC(Cc4ccccc4)CC3)ccc21` [Example 346, 1-(1-Ethyl-propyl)-2-thiophen-2-ylmethyl-1H-benzoimidazole-5-carboxylic acid {(S)-1-[3-(4-benzyl-piperidin-1-yl)-propylcarbamoyl]-3-methyl-butyl}-amide], the EC50 was found to be 1320 nM. With `CCC(CC)n1c(Cc2cccs2)nc2cc(C(=O)N[C@@H](CC(C)C)C(=O)N3CCC(COC)CC3)ccc21` [Example 374, 1-(1-Ethyl-propyl)-2-thiophen-2-ylmethyl-1H-benzoimidazole-5-carboxylic acid [(S)-1-(4-methoxymethyl-piperidine-1-carbonyl)-3-methyl-butyl]-amide] the figure was 2180 nM; with `CCC(CC)n1c(Cc2cccs2)nc2cc(C(=O)NC(CC(C)C)c3nccs3)ccc21` (stereo not shown) [Example 479, 1-(1-Ethyl-propyl)-2-thiophen-2-ylmethyl-1H-benzoimidazole-5-carboxylic acid (3-methyl-1-thiazol-2-yl-butyl)-amide], 16900 nM; with `CC(C)C[C@H](NC(=O)c1ccc2c(c1)nc(Cc1ccco1)n2C1CCCCC1C)C(=O)O` (single isomer, unassigned) [Example 418], 248 nM.
